Measurements: patent US20070104787A1, “Carboxyalkyl cellulose esters for sustained delivery of pharmaceutically active substances” (priority 2005, published 2007)

Assays:
[1] = USP #2 paddle dissolution test: release of active in pH 1.2 or pH 6.8 buffer; format: physicochemical; details: for total release of active (in words): CMCAB tablets (Formulations E17, E18, E20), pH 1.2
Method: The dissolution tests were done using a USP #2 calibrated apparatus Varian VK 7000 with Teflon paddles. The pills were added to 900 ml of USP 1.2 pH buffer or to 900 ml of USP pH 6.8 buffer. The buffer solutions had each been degassed at 41° C. through a 0.45 micron hydrophilic polypropylene filter and held under vacuum for an additional 5 minutes. After the solutions were added to the dissolution vessels, the solutions were held at 37.3° C. in the water bath for 30 minutes to achieve constant temperature, prior to the addition of the tablets. The tablets were weighted down with a Varian 3-pronged capsule weight. At the beginning of each run, the tablets were allowed to sink to the bottom of the 1000 ml vessel, the stirrers were turned on at 50 rpm and samples taken as a function of time, using polypropylene syringes. The samples were filtered through 0.45 micron filters and immediately analyzed for the amount of aspirin in the solution. The wavelength for measuring the amount of aspirin (salicylic acid acetate) at pH 1.2 was 279 nm, which was the wavelength for equivalent molar absorptivities for both salicylic acid and aspirin using a Varian UV-VIS Spectrophotometer and quartz absorption cells. Similarly, the wavelength used to measure the concentration of the aspirin in pH 6.8 buffer was 267 nm, which was the wavelength where the molar absorptivity for salicylic acid and aspirin are equivalent at pH 6.8. This allowed accurate measurement of the release rate profile without having to worry about the degradation of the aspirin to salicylic acid with time. Each set of experiments had appropriate standards for reference for quantitative analysis. In the cases where the samples contained Vitamin E-TPGS, HPLC with UV detection was done to analyze for aspirin and salicylic acid.
6.0069 g CMCAB was mixed with 1.4937 g Fexofenadine HCl and 10.7693 g ethanol. The clear solution was allowed to dry into a clear film. The amorphous compatible film was then ground in a SPEX™ liquid nitrogen Freezer Mill for 6 minutes at 75% maximum speed. Torpac Inc. #2 Gelatin capsules were filled with the powdered polymer blend and tested using a Varian VK7000 USP II dissolution device at pH 1.2 and pH 6.8. The dissolution results are shown in FIG. 24, which is a plot of fexofenadine released from CMCAB solid dispersion (y-axis) versus time (minutes, x-axis) for Formulation E24 in Example 4. […] By varying the way the carboxyalkyl cellulose ester is mixed with the active, the rate of release can be varied so that one can achieve near zero order release of the active over a long period of time.

[2] = cited from earlier work

SMILES	pH dependence of release ([1]; CMCAB tablet (Formulation E22), pH 1.2 versus pH 6.8)	duration of near zero order release ([1]; CMCAB tablet at 25% active (Formulation E22))	water solubility [2]	total release of active (in words) [1]
OC(Cn1cncn1)(Cn1cncn1)c1ccc(F)cc1F [fluconazole]	little pH dependence	up to 500 minutes	highly water soluble	–
Cc1nnc(NS(=O)(=O)c2ccc(N)cc2)s1 [sulfamethizole]	–	–	–	low total release
COc1cc(Cc2cnc(N)nc2N)cc(OC)c1OC [trimethoprim]	–	–	–	low total release
CC(C)Cc1ccc(C(C)C(=O)O)cc1 (stereo not drawn) [ibuprofen]	–	–	–	low total release
